This assay addresses TBK1 (Homo sapiens (Human), UniProt Q9UHD2). The assay is described as follows: TBK1 low ATP kinase assay (in vitro assay 1). The assay is classed as biochemical. The settings on record: in vitro assay 1, read-out: TBK1 low ATP kinase assay IC50.

Molecules are shown by their SMILES.

Chain of TBK1 (Q9UHD2 whole entry): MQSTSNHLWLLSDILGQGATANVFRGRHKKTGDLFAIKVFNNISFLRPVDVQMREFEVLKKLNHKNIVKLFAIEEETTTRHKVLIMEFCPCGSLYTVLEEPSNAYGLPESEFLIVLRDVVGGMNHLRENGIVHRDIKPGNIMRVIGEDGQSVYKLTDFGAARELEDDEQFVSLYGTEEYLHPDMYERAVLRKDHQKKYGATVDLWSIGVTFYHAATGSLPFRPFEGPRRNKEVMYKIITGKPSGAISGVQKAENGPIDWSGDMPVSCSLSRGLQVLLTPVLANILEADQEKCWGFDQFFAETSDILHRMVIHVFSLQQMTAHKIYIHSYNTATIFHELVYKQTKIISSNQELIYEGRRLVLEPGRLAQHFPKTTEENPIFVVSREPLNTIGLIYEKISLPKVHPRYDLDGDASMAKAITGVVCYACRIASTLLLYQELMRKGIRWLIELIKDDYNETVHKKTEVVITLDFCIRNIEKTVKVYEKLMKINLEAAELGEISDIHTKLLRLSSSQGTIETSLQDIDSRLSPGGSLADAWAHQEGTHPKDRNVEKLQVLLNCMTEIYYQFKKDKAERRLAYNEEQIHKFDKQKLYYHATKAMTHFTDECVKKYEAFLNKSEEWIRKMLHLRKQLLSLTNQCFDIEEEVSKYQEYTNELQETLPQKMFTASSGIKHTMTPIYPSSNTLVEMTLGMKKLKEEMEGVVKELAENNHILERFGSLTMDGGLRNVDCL

Broadly, the IC50 is the concentration at which inhibition is half-maximal. For `Cc1cc(-c2ccc3nc(Nc4cc(CN5CCN(C(=O)CC6CC6)CC5)ccn4)[nH]c3c2)ccn1` [Example 01.04, 2-cyclopropyl-1-{4-[(2-{[6-(2-methylpyridin-4-yl)-1H-benzimidazol-2-yl]amino}pyridin-4-yl)methyl]piperazin-1-yl}ethanone], the IC50 was 55.5 nM.
In the case of `COc1cncnc1-c1ccc2nc(Nc3cc(CN4CCN(C(=O)N5CCCCC5)CC4)ccn3)[nH]c2c1` [Example 35.01.06, {4-[(2-{[6-(5-methoxypyrimidin-4-yl)-1H-benzimidazol-2-yl]amino}pyridin-4-yl)methyl]piperazin-1-yl}(piperidin-1-yl)methanone] it was 47.9 nM; in that of `Cc1cc(-c2ccc3nc(Nc4cc(C(C)N5CCN(C(=O)C6CC6)CC5)ccn4)[nH]c3c2F)ncn1` (single isomer, unassigned) [Example 172.03, cyclopropyl{4-[(1R or 1S)-1-(2-{[7-fluoro-6-(6-methylpyrimidin-4-yl)-1H-benzimidazol-2-yl]amino}pyridin-4-yl)ethyl]piperazin-1-yl}methanone], 15 nM.
In the case of `O=C(CC(F)(F)F)N1CCN(Cc2ccnc(Nc3nc4ccc(-c5cc(C6CCOCC6)ncn5)cc4[nH]3)c2)CC1` [Example 199.02, 3,3,3-trifluoro-1-(4-{[2-({6-[6-(tetrahydro-2H-pyran-4-yl)pyrimidin-4-yl]-1H-benzimidazol-2-yl}amino)pyridin-4-yl]methyl}piperazin-1-yl)propan-1-one] it was 41.9 nM; in that of `CCn1cc(-c2ccc3nc(Nc4cc(CN5CCN(C(=O)C6CC6)CC5)ccn4)[nH]c3c2)cn1` [Example 38.03, cyclopropyl{4-[(2-{[6-(1-ethyl-1H-pyrazol-4-yl)-1H-benzimidazol-2-yl]amino}pyridin-4-yl)methyl]piperazin-1-yl}methanone], 55.8 nM.
Take `Cn1ncnc1-c1ccc2nc(Nc3cc(CN4CCN(C(=O)C5CC5)CC4)ccn3)[nH]c2c1` [Example 41.03, cyclopropyl{4-[(2-{[6-(1-methyl-1H-1,2,4-triazol-5-yl)-1H-benzimidazol-2-yl]amino}pyridin-4-yl)methyl]piperazin-1-yl}methanone]: the IC50 is 770 nM.
Turning to `O=C(CC1CC1)N1CCN(Cc2ccnc(Nc3nc4ccc(-c5ccnc(C(F)(F)F)n5)cc4[nH]3)c2)CC1` [Example 27.03, 2-cyclopropyl-1-(4-{[2-({6-[2-(trifluoromethyl)pyrimidin-4-yl]-1H-benzimidazol-2-yl}amino)pyridin-4-yl]methyl}piperazin-1-yl)ethanone], the IC50 is 203 nM.
In the case of `COc1cncnc1-c1ccc2nc(Nc3cc(CN4CCN(S(=O)(=O)C5CCOCC5)CC4)ccn3)[nH]c2c1` [Example 35.01.14, 6-(5-methoxypyrimidin-4-yl)-N-(4-{[4-(tetrahydro-2H-pyran-4-ylsulfonyl)piperazin-1-yl]methyl}pyridin-2-yl)-1H-benzimidazol-2-amine] it was 22.8 nM; in that of `CC(c1ccnc(Nc2nc3ccc(-c4cc(N5CCOCC5)ncn4)cc3[nH]2)c1)N1CCN(C(=O)CC(F)(F)F)CC1` (single isomer, unassigned) [Example 118.03, 3,3,3-trifluoro-1-(4-{(1R or 1S)-1-[2-({6-[6-(morpholin-4-yl)pyrimidin-4-yl]-1H-benzimidazol-2-yl}amino)pyridin-4-yl]ethyl}piperazin-1-yl)propan-1-one], 1.4 nM; in that of `Cc1noc(-c2ccc3nc(Nc4cc(C(C)N5CCN(C(=O)C6CC6)CC5)ccn4)[nH]c3c2)n1` (single isomer, unassigned) [Example 16.06.03.A, cyclopropyl{4-[(1R or 1S)-1-(2-{[6-(3-methyl-1,2,4-oxadiazol-5-yl)-1H-benzimidazol-2-yl]amino}pyridin-4-yl)ethyl]piperazin-1-yl}methanone], 13.8 nM.
On to `CC(c1ccnc(Nc2nc3ccc(-c4cnn(CC5(C)CC5)c4)cc3[nH]2)c1)N1CCN(C(=O)OC(C)(C)C)CC1` (single isomer, unassigned) [Example 68.01, tert-butyl 4-[(1R or 1S)-1-{2-[(6-{1-[(1-methylcyclopropyl)methyl]-1H-pyrazol-4-yl}-1H-benzimidazol-2-yl)amino]pyridin-4-yl}ethyl]piperazine-1-carboxylate], for which the IC50 was 26 nM.
As for `COc1nccc(-c2ccc3nc(Nc4cc(CN5CCN(C(=O)C6CC6)CC5)cc(C(F)(F)F)n4)[nH]c3c2)n1` [Example 25.02.01, cyclopropyl(4-{[2-{[6-(2-methoxypyrimidin-4-yl)-1H-benzimidazol-2-yl]amino}-6-(trifluoromethyl)pyridin-4-yl]methyl}piperazin-1-yl)methanone], the IC50 stood at 346 nM.
On to `COc1c(C)ncnc1-c1ccc2nc(Nc3cc(CN4CCN(C(=O)CC(F)(F)F)CC4)ccn3)[nH]c2c1` [Example 61.01.01, 3,3,3-trifluoro-1-{4-[(2-{[6-(5-methoxy-6-methylpyrimidin-4-yl)-1H-benzimidazol-2-yl]amino}pyridin-4-yl)methyl]piperazin-1-yl}propan-1-one], for which the IC50 amounted to 19.7 nM.
Take `CC(c1ccnc(Nc2nc3ccc(-c4ccncn4)cc3[nH]2)c1)N1CCN(C(=O)C2CCC2)CC1` (single isomer, unassigned) [Example 23.05.03.A, cyclobutyl{4-[(1R or 1S)-1-(2-{[6-(pyrimidin-4-yl)-1H-benzimidazol-2-yl]amino}pyridin-4-yl)ethyl]piperazin-1-yl}methanone]: the IC50 stood at 2.99 nM.

Source of the values: US10894784B2, “Heteroarylbenzimidazole compounds” (BAYER PHARMA AKTIENGESELLSCHAFT, priority 2015, dated 2021).
